Like-named read-outs stand apart in the source and are kept apart here.
Experiments:
KRAS (WT) = target: T1, KRAS (WT) (Homo sapiens, UniProt P01116); experiment: In-vitro RAS-RAF binding assay (RRB), HTRF/FRET; type: biochemical; details: read-out: Inhibition of RAS-RAF Binding (in-vitro) KRAS (WT) IC50
T1 construct: Biotinylated KRAS protein amino acids 1-169 (produced at Erasca); made in house
Protocol: (§1) Biotinylated KRAS protein amino acids 1-169 (produced at […]) is labeled with streptavidin-terbium (lanthanide cryptate donor fluorophore) in assay buffer (50 mM HEPES, pH 7.5, 100 mM NaCl, 1 mM MgCl2, 1 mM DTT) at a final concentration of 30 nM. In a separate reaction mixture, 30 nM cRAF (RBD) (Abcam, Cambridge MA) is labeled with anti-GST d2 (acceptor fluorophore). Labeling reactions are incubated for 1 hour at room temperature. […] Following the compound incubation, SOS1 catalytic domain (produced at […]) and GTPgS are added to the reaction to initiate nucleotide exchange (60 minutes exchange reaction). Once in the GTP state KRAS will bind to cRAF. No binding will occur if KRAS remains in the GDP state. Compounds may block nucleotide exchange or may create a steric obstruction to cRAF-KRAS interaction by binding to the RAS effector site. […] A portion of this mixture is transferred to a white 384-well plate (20 uL per well in duplicate) and read on an HTRF compatible plate reader (ClarioSTAR). Fluorescent resonance energy transfer (FRET) is measured at equilibrium. FRET signal will be high if KRAS-cRAF binding occurs. FRET signal will be low if KRAS-cRAF binding is inhibited by the test compound. Table 2 represents the average of multiple runs of each compound.

KRAS G12D = KRAS G12D (Homo sapiens, UniProt P01116, G12D); experiment: In-vitro RAS-RAF binding assay (RRB), HTRF/FRET; type: biochemical; parameters: Biotinylated KRAS protein amino acids 1-169 (produced at Erasca); made in house; details: read-out: Inhibition of RAS-RAF Binding (in-vitro) KRAS (G12D) IC50
KRAS G12D, sequence (P01116 1-169 isoform P01116-2 G12D): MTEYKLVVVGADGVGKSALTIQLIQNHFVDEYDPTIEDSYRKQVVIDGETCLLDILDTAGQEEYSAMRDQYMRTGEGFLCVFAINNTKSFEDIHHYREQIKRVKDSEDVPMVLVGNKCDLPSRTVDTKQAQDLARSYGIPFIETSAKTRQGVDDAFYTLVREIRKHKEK
Protocol: as §1

[1] = Table 2, average of multiple runs of each compound

T1 sequence (P01116 1-169 isoform P01116-2): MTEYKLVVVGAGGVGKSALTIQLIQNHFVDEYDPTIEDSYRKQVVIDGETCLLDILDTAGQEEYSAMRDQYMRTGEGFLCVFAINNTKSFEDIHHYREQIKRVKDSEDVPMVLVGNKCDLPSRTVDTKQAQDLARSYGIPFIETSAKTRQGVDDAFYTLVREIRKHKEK

Row | SMILES | IC50 (KRAS (WT); Table 1) | IC50 (KRAS (WT); [1]) | IC50 (KRAS G12D; Table 1) | IC50 (KRAS G12D; [1])
1 | Cc1cc(N)nc(-c2c(Cl)cc3c(N4CC5CCC(C4)N5)nc(OC[C@@H]4CCCN4CCCOCCC(=O)N[C@H](C(=O)N4C[C@H](O)C[C@H]4C(=O)N[C@@H](C)c4ccc(-c5scnc5C)cc4)C(C)(C)C)nc3c2F)c1C(F)(F)F [Example 1, (2S,4R)-1-[(2S)-2-[3-[3-[(2S)-2-[[7-[6-amino-4-methyl-3-(trifluoromethyl)-2-pyridyl]-6-chloro-4-(3,8-diazabicyclo[3.2.1]octan-3-yl)-8-fluoro-quinazolin-2-yl]oxymethyl]pyrrolidin-1-yl]propoxy]propanoylamino]-3,3-dimethyl-butanoyl]-4-hydroxy-N-[(1S)-1-[4-(4-methylthiazol-5-yl)phenyl]ethyl]pyrrolidine-2-carboxamide] | 799 nM | 799 nM | 15 nM | 15.4 nM
2 | Cc1cc(N)nc(-c2c(Cl)cc3c(N4CC5CCC(C4)N5)nc(OC[C@@H]4CCCN4CCCOCCC(=O)N[C@H](C(=O)N4C[C@H](O)C[C@H]4C(=O)NCc4ccc(-c5scnc5C)cc4)C(C)(C)C)nc3c2F)c1C(F)(F)F [Example 2, (2S,4R)-1-[(2S)-2-[3-[3-[(2S)-2-[[7-[6-amino-4-methyl-3-(trifluoromethyl)-2-pyridyl]-6-chloro-4-(3,8-diazabicyclo[3.2.1]octan-3-yl)-8-fluoro-quinazolin-2-yl]oxymethyl]pyrrolidin-1-yl]propoxy]propanoylamino]-3,3-dimethyl-butanoyl]-4-hydroxy-N-[[4-(4-methylthiazol-5-yl)phenyl]methyl]pyrrolidine-2-carboxamide] | 4250 nM | 4250 nM | 17 nM | 17.2 nM
3 | Cc1cc(N)nc(-c2c(Cl)cc3c(N4CC5CCC(C4)N5)nc(OC[C@@H]4CCCN4CCCOCCCOc4cc(-c5scnc5C)ccc4CNC(=O)[C@@H]4C[C@@H](O)CN4C(=O)[C@H](NC(=O)C4(F)CC4)C(C)(C)C)nc3c2F)c1C(F)(F)F [Example 3, (2S,4R)—N-[[2-[3-[3-[(2S)-2-[[7-[6-amino-4-methyl-3-(trifluoromethyl)-2-pyridyl]-6-chloro-4-(3,8-diazabicyclo[3.2.1]octan-3-yl)-8-fluoro-quinazolin-2-yl]oxymethyl]pyrrolidin-1-yl]propoxy]propoxy]-4-(4-methylthiazol-5-yl)phenyl]methyl]-1-[(2R)-2-[(1-fluorocyclopropanecarbonyl)amino]-3,3-dimethyl-butanoyl]-4-hydroxy-pyrrolidine-2-carboxamide] | > 10000 nM | > 10000 nM | 64 nM | 64.3 nM
4 | Cc1cc(N)nc(-c2c(Cl)cc3c(N4CC5CCC(C4)N5)nc(OC[C@@H]4CCCN4CCCCCCCN4CCC(c5cc(F)cc6c5CN(C5CCC(=O)NC5=O)C6=O)CC4)nc3c2F)c1C(F)(F)F (stereo partly drawn) [Example 5, 3-[4-[1-[7-[(2S)-2-[[7-[6-amino-4-methyl-3-(trifluoromethyl)-2-pyridyl]-6-chloro-4-(3,8-diazabicyclo[3.2.1]octan-3-yl)-8-fluoro-quinazolin-2-yl]oxymethyl]pyrrolidin-1-yl]heptyl]-4-piperidyl]-6-fluoro-1-oxo-isoindolin-2-yl]piperidine-2,6-dione] | 2440 nM | 4920 nM | 19 nM | 18.8 nM

These reach a lower IC50 (KRAS (WT); [1]). Values come first.

Row | IC50 (KRAS (WT); Table 1) | IC50 (KRAS (WT); [1]) | IC50 (KRAS G12D; Table 1) | IC50 (KRAS G12D; [1]) | SMILES
5 | – | 134 nM | – | 12.7 nM | C#Cc1c(F)ccc2cc(O)cc(-c3ncc4c(N5CC6CCC(C5)N6)nc(OC[C@@H]5CCCN5CCCC5CCC(=O)N5[C@H](C(=O)N5C[C@H](O)C[C@H]5C(=O)N[C@@H](C)c5ccc(-c6scnc6C)cc5)C(C)(C)C)nc4c3F)c12 (stereo partly drawn) [Example 10, (2S,4R)-1-((2S)-2-(2-(3-((2S)-2-(((4-(3,8-diazabicyclo[3.2.1]octan-3-yl)-7-(8-ethynyl-7-fluoro-3-hydroxynaphthalen-1-yl)-8-fluoropyrido[4,3-d]pyrimidin-2-yl)oxy)methyl)pyrrolidin-1-yl)propyl)-5-oxopyrrolidin-1-yl)-3,3-dimethylbutanoyl)-4-hydroxy-N—((S)-1-(4-(4-methylthiazol-5-yl)phenyl)ethyl)pyrrolidine-2-carboxamide]
6 | – | 162 nM | – | 14.4 nM | C[C@H](NC(=O)[C@@H]1C[C@@H](O)CN1C(=O)[C@@H](NC(=O)CCOCCCN1CCC[C@H]1COc1nc(N2CC3CCC(C2)N3)c2cc(C(F)(F)F)c(-c3ccc(F)c4sc(N)c(C#N)c34)cc2n1)C(C)(C)C)c1ccc(-c2c(F)cccc2F)cc1 [Example 21, (2S,4R)-1-((2S)-2-(3-(3-((2S)-2-(((7-(2-amino-3-cyano-7-fluorobenzo [b]thiophen-4-yl)-4-(3,8-diazabicyclo[3.2.1]octan-3-yl)-6-(trifluoromethyl)quinazolin-2-yl)oxy)methyl)pyrrolidin-1-yl)propoxy)propanamido)-3,3-dimethylbutanoyl)-N—((S)-1-(2′,6′-difluoro-[1,1′-biphenyl]-4-yl)ethyl)-4-hydroxypyrrolidine-2-carboxamide]
7 | – | 65 nM | – | 12.6 nM | Cc1ncsc1-c1ccc([C@H](C)NC(=O)[C@@H]2C[C@@H](O)CN2C(=O)[C@@H](NC(=O)CCCCN2CC[C@H]2COc2nc(N3CC4CCC(C3)N4)c3cc(Cl)c(-c4ccc(F)c5sc(N)c(C#N)c45)c(F)c3n2)C(C)(C)C)cc1 [Example 23, (2S,4R)-1-((2S)-2-(5-((2S)-2-(((7-(2-amino-3-cyano-7-fluorobenzo[b]thiophen-4-yl)-4-(3,8-diazabicyclo[3.2.1]octan-3-yl)-6-chloro-8-fluoroquinazolin-2-yl)oxy)methyl)azetidin-1-yl)pentanamido)-3,3-dimethylbutanoyl)-4-hydroxy-N—((S)-1-(4-(4-methylthiazol-5-yl)phenyl)ethyl)pyrrolidine-2-carboxamide]
8 | – | 107 nM | – | 12 nM | C[C@H](NC(=O)[C@@H]1C[C@@H](O)CN1C(=O)[C@@H](NC(=O)CCOCCCN1CCC[C@H]1COc1nc(N2CC3CCC(C2)N3)c2cc(Cl)c(-c3ccc(F)c4sc(N)c(C#N)c34)c(F)c2n1)C(C)(C)C)c1ccc(-c2ccccc2Cl)cc1 [Example 25, (2S,4R)-1-((2S)-2-(3-(3-((2S)-2-(((7-(2-amino-3-cyano-7-fluorobenzo[b]thiophen-4-yl)-4-(3,8-diazabicyclo[3.2.1]octan-3-yl)-6-chloro-8-fluoroquinazolin-2-yl)oxy)methyl)pyrrolidin-1-yl)propoxy)propanamido)-3,3-dimethylbutanoyl)-N—((S)-1-(2′-chloro-[1,1′-biphenyl]-4-yl)ethyl)-4-hydroxypyrrolidine-2-carboxamide]
9 | – | 91.8 nM | – | 12 nM | Cc1ccccc1-c1ccc([C@H](C)NC(=O)[C@@H]2C[C@@H](O)CN2C(=O)[C@@H](NC(=O)CCOCCCN2CCC[C@H]2COc2nc(N3CC4CCC(C3)N4)c3cc(Cl)c(-c4ccc(F)c5sc(N)c(C#N)c45)c(F)c3n2)C(C)(C)C)cc1 [Example 26, (2S,4R)-1-((2S)-2-(3-(3-((2S)-2-(((7-(2-amino-3-cyano-7-fluorobenzo[b]thiophen-4-yl)-4-(3,8-diazabicyclo[3.2.1]octan-3-yl)-6-chloro-8-fluoroquinazolin-2-yl)oxy)methyl)pyrrolidin-1-yl)propoxy)propanamido)-3,3-dimethylbutanoyl)-4-hydroxy-N—((S)-1-(2′-methyl-[1,1′-biphenyl]-4-yl)ethyl)pyrrolidine-2-carboxamide]

— US20240293558A1, “KRAS INHIBITOR CONJUGATES” (Erasca, Inc., priority 2021, published 2024)
